Here are results for 29 compounds from patent US10370343B2, “[6,6] Fused bicyclic HDAC8 inhibitors” (FORMA Therapeutics, Inc., priority 2015, dated 2019).

Assay [1] concerns the target T1, Recombinant N-terminal GST tag full-length human HDAC8 (Homo sapiens, UniProt Q9BY41).
T1 construct: Recombinant N-terminal GST tag full-length human HDAC8; purchased SignalChem H90-30G-1000; host or cells: baculovirus in Sf9 insect cells
T1 sequence (Q9BY41 1-377): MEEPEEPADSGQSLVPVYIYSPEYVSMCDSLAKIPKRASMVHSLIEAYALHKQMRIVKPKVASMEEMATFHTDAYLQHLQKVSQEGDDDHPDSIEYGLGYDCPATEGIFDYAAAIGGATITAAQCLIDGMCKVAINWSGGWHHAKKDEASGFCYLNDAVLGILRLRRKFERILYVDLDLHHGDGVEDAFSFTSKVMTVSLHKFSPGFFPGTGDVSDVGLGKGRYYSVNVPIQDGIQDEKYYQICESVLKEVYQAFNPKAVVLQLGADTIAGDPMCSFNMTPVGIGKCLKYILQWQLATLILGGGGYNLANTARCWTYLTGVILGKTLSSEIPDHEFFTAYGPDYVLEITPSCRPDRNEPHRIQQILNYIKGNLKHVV
Briefly: HDAC8 probe binding assay, time resolved fluorescence (TRF) format. As to conditions: compounds grouped by IC50 range (Table 2). The essentials:
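Probe-binding TRF assay using full-length N-GST human HDAC8 expressed in baculovirus-infected Sf9 cells, incubated 16 h at room temperature and read at 340 nm excitation, 485/535 nm emission. Percent inhibition was normalised to no-enzyme and DMSO controls. IC50 was obtained by 4-parameter logistic fit.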

In assay [2] the target is T2, Full length human recombinant HDAC8 protein (Homo sapiens, UniProt Q9BY41).
T2 construct: Full length human recombinant HDAC8 protein was expressed in baculoviral system; made in house
T2 sequence (Q9BY41 1-377): T1 sequence (Q9BY41 1-377)
Briefly: In vitro histone deacetylase assay: enzymatic HDAC8 electrophoretic mobility shift assay. Type of assay: biochemical. As to conditions: electrophoretic mobility shift assay; enzyme 1 nM; 2 μM fluorescently labeled peptide substrate RHKK(Ac)-NH2; 25° C.; 12 concentrations; read-out: HDAC8 IC50. (In EMSA bound probe runs differently from free probe, usually more slowly.)

Molecules are shown by their SMILES. A value given as a limit tells only on which side of the number the result lay.

With `CN1CCCC[C@H]1CN1C(=O)COc2ccc(C(=O)NO)cc21` (stereo in doubt) [Compound I-47, N-hydroxy-4-((1-methylpiperidin-2-yl)methyl)-3-oxo-3,4-dihydro-2H-benzo[b][1,4]oxazine-6-carboxamide], the IC50 in assay [1] and in assay [2] was over 1 µM in each case.

On to `O=C(NO)c1ccc2c(c1)N(CC[C@@H]1CCS(=O)(=O)C1)C(=O)CO2` (stereo in doubt) [Compound I-54, 4-(2-(1,1-dioxidotetrahydrothiophen-3-yl)ethyl)-N-hydroxy-3-oxo-3,4-dihydro-2H-benzo[b][1,4]oxazine-6-carboxamide], for which the concentration for half-maximal inhibition (IC50) in assay [1] is 0.025 to 0.1 µM; in assay [2] it was 0.1 to 1 µM. Consider `O=C(NO)c1ccc2c(c1)N(Cc1csc(C3CC3)n1)CCO2` [Compound I-20, 4-((2-cyclopropylthiazol-4-yl)methyl)-N-hydroxy-3,4-dihydro-2H-benzo[b][1,4]oxazine-6-carboxamide], for which the IC50 was over 1 µM in assay [1] and 0.1 to 1 µM in assay [2].

Consider `O=C(NO)c1ccc2c(c1)N(Cc1ccccc1F)CCO2` [Compound I-27, 4-(2-fluorobenzyl)-N-hydroxy-3,4-dihydro-2H-benzo[b][1,4]oxazine-6-carboxamide], for which the IC50 in assay [1] is 0.025 to 0.1 µM; in assay [2], under 0.025 µM. On to `O=C(NO)c1ccc2c(c1)N(CC1CCC1)C(=O)CO2` [Compound I-31, 4-(cyclobutylmethyl)-N-hydroxy-3-oxo-3,4-dihydro-2H-benzo[b][1,4]oxazine-6-carboxamide], for which the half-inhibitory concentration (IC50) in assay [1] and in assay [2] was 0.025 to 0.1 µM throughout. In the case of `O=C(NO)c1ccc2c(c1)N(Cc1cccc(F)c1)C(=O)CO2` [Compound I-33, 4-(3-fluorobenzyl)-N-hydroxy-3-oxo-3,4-dihydro-2H-benzo[b][1,4]oxazine-6-carboxamide], the results for the half-inhibitory concentration (IC50) in assay [1] and in assay [2] were at most 0.025 µM and 0.025 to 0.1 µM, respectively. For `O=C(NO)c1ccc2c(c1)N(Cc1ccc(OC(F)(F)F)cc1)C(=O)CO2` [Compound I-36, N-hydroxy-3-oxo-4-(4-(trifluoromethoxy)benzyl)-3,4-dihydro-2H-benzo[b][1,4]oxazine-6-carboxamide], the IC50 in assay [1] is at most 0.025 µM; in assay [2] it was under 0.025 µM.

Consider `O=C(NO)c1ccc2c(c1)N(Cc1ccc(F)cc1)C(=O)CO2` [Compound I-37, 4-(4-fluorobenzyl)-N-hydroxy-3-oxo-3,4-dihydro-2H-benzo[b][1,4]oxazine-6-carboxamide], for which the IC50 was at most 0.025 µM in assay [1] and under 0.025 µM in assay [2].

For `Cc1ccc(CN2C(=O)COc3ccc(C(=O)NO)cc32)cc1` [Compound I-38, N-hydroxy-4-(4-methylbenzyl)-3-oxo-3,4-dihydro-2H-benzo[b][1,4]oxazine-6-carboxamide], the results for the IC50 in assay [1] and in assay [2] were at most 0.025 µM and under 0.025 µM, respectively. The matching figures for `CCCCN1C(=O)COc2ccc(C(=O)NO)cc21` [Compound I-45, 4-butyl-N-hydroxy-3-oxo-3,4-dihydro-2H-benzo[b][1,4]oxazine-6-carboxamide]: 0.025 to 0.1 µM and 0.025 to 0.1 µM.

On to `O=C(NO)c1ccc2c(c1)N(CCOCC1CC1)C(=O)CO2` [Compound I-50, 4-(2-(cyclopropylmethoxy)ethyl)-N-hydroxy-3-oxo-3,4-dihydro-2H-benzo[b][1,4]oxazine-6-carboxamide], for which the IC50 in assay [1] and in assay [2] was 0.025 to 0.1 µM throughout. On to `O=C(NO)c1ccc2c(c1)N(CCOCC(F)(F)F)C(=O)CO2` [Compound I-53, N-hydroxy-3-oxo-4-(2-(2,2,2-trifluoroethoxy)ethyl)-3,4-dihydro-2H-benzo[b][1,4]oxazine-6-carboxamide], for which the half-inhibitory concentration (IC50) in assay [1] and in assay [2] was 0.025 to 0.1 µM throughout. As to `O=C(NO)c1ccc2c(c1)N(CCc1ccccc1)C(=O)CO2` [Compound I-58, N-hydroxy-3-oxo-4-phenethyl-3,4-dihydro-2H-benzo[b][1,4]oxazine-6-carboxamide], the IC50 in assay [1] and in assay [2] was 0.025 to 0.1 µM each time. Take `CC(C)CCN1C(=O)COc2ccc(C(=O)NO)cc21` [Compound I-59, N-hydroxy-4-isopentyl-3-oxo-3,4-dihydro-2H-benzo[b][1,4]oxazine-6-carboxamide]: the half-maximal inhibitory concentration (IC50) in assay [1] and in assay [2] was 0.025 to 0.1 µM each time. With `COc1cccc(CN2C(=O)COc3ccc(C(=O)NO)cc32)c1` [Compound I-60, N-hydroxy-4-(3-methoxybenzyl)-3-oxo-3,4-dihydro-2H-benzo[b][1,4]oxazine-6-carboxamide], the half-inhibitory concentration (IC50) in assay [1] and in assay [2] was 0.025 to 0.1 µM in each case. For the compound `O=C(NO)c1ccc2c(c1)N(Cc1ccc3nonc3c1)C(=O)CO2` [Compound I-62, 4-(benzo[c][1,2,5]oxadiazol-5-ylmethyl)-N-hydroxy-3-oxo-3,4-dihydro-2H-benzo[b][1,4]oxazine-6-carboxamide], the 50% inhibitory concentration (IC50) in assay [1] is 0.025 to 0.1 µM; in assay [2], under 0.025 µM.

Turning to `O=C(NO)c1ccc2c(c1)N(Cc1ccc(Cl)cc1)C(=O)CO2` [Compound I-64, 4-(4-chlorobenzyl)-N-hydroxy-3-oxo-3,4-dihydro-2H-benzo[b][1,4]oxazine-6-carboxamide], the IC50 in assay [1] was at most 0.025 µM; in assay [2], under 0.025 µM. As for `Cc1cccc(CN2C(=O)COc3ccc(C(=O)NO)cc32)c1` [Compound I-68, N-hydroxy-4-(3-methylbenzyl)-3-oxo-3,4-dihydro-2H-benzo[b][1,4]oxazine-6-carboxamide], the IC50 in assay [1] was at most 0.025 µM; in assay [2], 0.025 to 0.1 µM. With `Cc1cccc(CN2C(=O)COc3ccc(C(=O)NO)cc32)c1F` [Compound I-74, 4-(2-fluoro-3-methylbenzyl)-N-hydroxy-3-oxo-3,4-dihydro-2H-benzo[b][1,4]oxazine-6-carboxamide], the IC50 is at most 0.025 µM in assay [1] and under 0.025 µM in assay [2].

For `Cc1nc(-c2ccccc2)sc1CN1C(=O)COc2ccc(C(=O)NO)cc21` [Compound I-76, N-hydroxy-4-((4-methyl-2-phenylthiazol-5-yl)methyl)-3-oxo-3,4-dihydro-2H-benzo[b][1,4]oxazine-6-carboxamide], the IC50 in assay [1] and in assay [2] was 0.025 to 0.1 µM in each case. For the compound `O=C(NO)c1ccc2c(c1)N(Cc1cn(-c3ccccc3)nn1)C(=O)CO2` [Compound I-77, N-hydroxy-3-oxo-4-[(1-phenyl-1H-1,2,3-triazol-4-yl)methyl]-3,4-dihydro-2H-1,4-benzoxazine-6-carboxamide], the figures for the IC50 in assay [1] and in assay [2] were at most 0.025 µM and under 0.025 µM, respectively. In the case of `CS(=O)(=O)c1ccc(CN2CCS(=O)(=O)c3ccc(C(=O)NO)cc32)cc1` [Compound I-82, N-hydroxy-4-(4-(methylsulfonyl)benzyl)-3,4-dihydro-2H-benzo[b][1,4]thiazine-6-carboxamide-1,1-dioxide], the half-maximal inhibitory concentration (IC50) in assay [1] is at most 0.025 µM; in assay [2] it was under 0.025 µM. Regarding `CC(c1ccc(S(C)(=O)=O)cc1)N1C(=O)COc2ccc(C(=O)NO)cc21` (stereo not drawn) [Compound I-94, N-hydroxy-4-(1-(4-(methylsulfonyl)phenyl)ethyl)-3-oxo-3,4-dihydro-2H-benzo[b][1,4]oxazine-6-carboxamide], the figures for the IC50 in assay [1] and in assay [2] were at most 0.025 µM and under 0.025 µM, respectively.

Regarding `CC(c1c(F)cccc1F)N1C(=O)COc2ccc(C(=O)NO)cc21` (stereo not drawn) [Compound I-96, 4-(1-(2,6-difluorophenyl)ethyl)-N-hydroxy-3-oxo-3,4-dihydro-2H-benzo[b][1,4]oxazine-6-carboxamide], the IC50 in assay [1] and in assay [2] was 0.025 to 0.1 µM throughout. `COc1ccc(CN2C(=O)C(C)(C)Oc3ccc(C(=O)NO)cc32)cc1` [Compound I-98, N-hydroxy-4-(4-methoxybenzyl)-2,2-dimethyl-3-oxo-3,4-dihydro-2H-benzo[b][1,4]oxazine-6-carboxamide]: the IC50 in assay [1] and in assay [2] was 0.025 to 0.1 µM throughout. For `CCn1c(CN2C(=O)COc3ccc(C(=O)NO)cc32)nc2ccc(Cl)cc21` [Compound I-269, 4-((6-chloro-1-ethyl-1H-benzo[d]imidazol-2-yl)methyl)-N-hydroxy-3-oxo-3,4-dihydro-2H-benzo[b][1,4]oxazine-6-carboxamide], the half-inhibitory concentration (IC50) in assay [2] was 0.1 to 1 µM. In the case of `O=C(NO)c1ccc2c(c1)N(Cc1nc3ccccc3n1CC1CC1)C(=O)CO2` [Compound I-279, 4-((1-(cyclopropylmethyl)-1H-benzo[d]imidazol-2-yl)methyl)-N-hydroxy-3-oxo-3,4-dihydro-2H-benzo[b][1,4]oxazine-6-carboxamide], in assay [2], the IC50 lay within 0.1 to 1 µM. As to `CCCn1c(CN2C(=O)COc3ccc(C(=O)NO)cc32)nc2ccccc21` [Compound I-282, N-hydroxy-3-oxo-4-((1-propyl-1H-benzo[d]imidazol-2-yl)methyl)-3,4-dihydro-2H-benzo[b][1,4]oxazine-6-carboxamide], in assay [2], the IC50 fell in the range of 0.1 to 1 µM.

Regarding `CCCc1nc(C)sc1CN1C(=O)COc2ccc(C(=O)NO)cc21` [Compound I-283, N-hydroxy-4-((2-methyl-4-propylthiazol-5-yl)methyl)-3-oxo-3,4-dihydro-2H-benzo[b][1,4]oxazine-6-carboxamide], in assay [2], the 50% inhibitory concentration (IC50) lay in the range of 0.1 to 1 µM.

In general, IC50 refers to the concentration needed to halve the response being measured.
